Laboratory results published in US9914720B2, “Crystalline form of (S)-(2-(6-chloro-7-methyl-1H-benzo[D]imidazol-2-yl)-2-methylpyrrolidin-1-yl)(5-methoxy-2-(2H-1,2,3-triazol-2-yl)phenyl)methanone and its use as orexin receptor antagonists” (IDORSIA PHARMACEUTICALS LTD, priority 2013, dated 2018).

Legend:
[1] = Gravimetric vapour sorption (GVS) analysis, hygroscopicity; type: physicochemical; settings: GVS at 25° C.; for Hygroscopicity: mass change: between 40% and 80% relative humidity; for Hygroscopicity: sorption of moisture mass/mass: humidity program 40-0-95-0-95-40% RH, maximum sorption with hysteresis
Protocol: Gravimetric Vapour Sorption (GVS) Analysis
The sample was allowed to equilibrate at 40% RH before starting a pre-defined humidity program (40-0-95-0-95-40% RH, steps of 5% ΔRH and with a maximal equilibration time of 24 hours per step were applied. About 20 to 30 mg of each sample was used. The hygroscopic classification is done according to the European Pharmacopeia Technical Guide (1999, page 86), e.g., slightly hygroscopic: increase in mass is less than 2% and equal to or greater than 0.2% mass/mass; hygroscopic: increase in mass is less than 15% and equal to or greater than 2% mass/mass. The mass change between 40% relative humidity and 80% relative humidity in the first adsorption scan is considered.

[2] = Measurement of brain and systemic concentration after oral administration; type: in vivo; settings: 3 h after oral administration (100 mg/kg), n=3, male wistar rats
Protocol: Measurement of Brain and Systemic Concentration after Oral Administration:
Samples are collected in the same animal at the same time point (+/−5 min). Blood is sampled from the vena cava caudalis into containers with EDTA as anticoagulant and centrifuged to yield plasma. Brain is sampled after cardiac perfusion of 10 mL NaCl 0.9% and homogenized into one volume of cold phosphate buffer (pH 7.4). All samples are extracted with MeOH and analyzed by LC-MS/MS. Concentrations are determined with the help of calibration curves.

Wistar rats = test: Sedative effects: EEG, EMG and behavioural indices of alertness recorded by radiotelemetry; type: in vivo; settings: 30 mg/kg po, effects analyzed over 6 hours
Protocol: Sedative Effects: EEG, EMG and Behavioural Indices of Alertness Recorded by Radiotelemetry In Vivo in Wistar Rats.
Electroencephalography (EEG) and Electromyography (EMG) signals were measured by telemetry using TL11M2-F20-EET miniature radiotelemetric implants (Data Science Int.) with two pairs of differential leads.
Surgical implantation was performed under general anesthesia with Ketamin/Xylazin, for cranial placement of one differential pair of EEG electrodes and one pair of EMG leads inserted in either side of the muscles of the neck. After surgery, rats recovered in a thermoregulated chamber and received analgesic treatment with subcutaneous buprenorphine twice a day for 2 d. They were then housed individually and allowed to recover for a minimum of 2 weeks. Thereafter, rats—in their home cage—were placed in a ventilated sound-attenuating box, on a 12-h light/12-h dark cycle, for acclimatization before continuous EEG/EMG recordings started. The telemetric technology that we used in this study allows accurate and stress-free acquisition of biosignals in rats placed in their familiar home cage environment, with no recording leads restricting their movements. Variables analyzed included four different stages of vigilance and sleep, spontaneous activity in the home cage and body temperature. Sleep and wake stages were evaluated using a rodent scoring software (Somnologica Science) directly processing electrical biosignals on 10 s contiguous epochs. The scoring is based on frequency estimation for EEG and amplitude discrimination for EMG and locomotor activity. Using these measurements, the software determines the probability that all components within each epoch best represent active waking (AW), quiet waking (QW), non-REM-sleep (NREM) or REM-sleep (REM). The percentage of total time spent in AW, QW, NREM- and REM-sleep was calculated per 12 h light or dark period. The latency to the onset of the first significant NREM- and REM-sleep episodes and the frequency and duration of those episodes were also calculated. […] All variables were subsequently recorded for 12 h following administration of the orexin receptor antagonist.

COc1ccc(-n2nccn2)c(C(=O)N2CCC[C@@]2(C)c2nc3c(C)c(Cl)ccc3[nH]2)c1 [COMPOUND in crystalline form 1, (S)-(2-(6-chloro-7-methyl-1H-benzo[d]imidazol-2-yl)-2-methylpyrrolidin-1-yl)(5-methoxy-2-(2H-1,2,3-triazol-2-yl)phenyl)methanone]
Hygroscopicity (hygroscopic classification) ([1]; European Pharmacopeia Technical Guide classification, 40% to 80% RH, first adsorption scan): Non hygroscopic (mass change smaller | Hygroscopicity: mass change ([1]; first adsorption scan): then 0.1%)

COc1ccc(-n2nccn2)c(C(=O)N2CCC[C@@]2(C)c2nc3c(C)c(Cl)ccc3[nH]2)c1 [COMPOUND as free base in amorphous form, [(S)-2-(5-chloro-4-methyl-1H-benzoimidazol-2-yl)-2-methyl-pyrrolidin-1-yl]-(5-methoxy-2-[1,2,3]triazol-2-yl-phenyl)-methanone]
Hygroscopicity: mass change ([1]; first adsorption scan): about 0.7%), Hysteresis and sorption | Hygroscopicity: sorption of moisture mass/mass [1]: of up to 2.7% moisture mass/mass.

COc1ccc(-n2nccn2)c(C(=O)N2CCC[C@@]2(C)c2nc3c(C)c(Cl)ccc3[nH]2)c1 [COMPOUND, (S)-(2-(6-chloro-7-methyl-1H-benzo[d]imidazol-2-yl)-2-methylpyrrolidin-1-yl)(5-methoxy-2-(2H-1,2,3-triazol-2-yl)phenyl)methanone]
concentration in brain [B] [2]: 1808 ng/g | concentration in plasma [P] [2]: 1280 ng/mL | effect on NREM sleep compared to vehicle controls (Wistar rats): +27% | effect on REM sleep compared to vehicle controls (Wistar rats): +53% | effect on active wake compared to vehicle controls (Wistar rats): −24% | effect on home cage activity compared to vehicle controls (Wistar rats): −31%

COc1ccc(-n2nccn2)c(C(=O)N2CCC[C@@]2(C)c2nc3c(C)c(Cl)ccc3[nH]2)c1 [COMPOUND in crystalline form 2, (S)-(2-(6-chloro-7-methyl-1H-benzo[d]imidazol-2-yl)-2-methylpyrrolidin-1-yl)(5-methoxy-2-(2H-1,2,3-triazol-2-yl)phenyl)methanone]
Hygroscopicity: mass change ([1]; first adsorption scan): about 0.7%) | Hygroscopicity: sorption of moisture mass/mass [1]: ≤ 1.1% moisture mass/mass.
